Assays:
[1] = target: Mitogen-activated protein kinase kinase kinase 9 (Homo sapiens) (UniProt P80192); details: Compound concentration 1000.0 nM
[2] = target: T1, Inhibitor of nuclear factor kappa-B kinase subunit beta (Homo sapiens) (UniProt O14920); details: Compound concentration 1000.0 nM
T1 sequence (whole entry): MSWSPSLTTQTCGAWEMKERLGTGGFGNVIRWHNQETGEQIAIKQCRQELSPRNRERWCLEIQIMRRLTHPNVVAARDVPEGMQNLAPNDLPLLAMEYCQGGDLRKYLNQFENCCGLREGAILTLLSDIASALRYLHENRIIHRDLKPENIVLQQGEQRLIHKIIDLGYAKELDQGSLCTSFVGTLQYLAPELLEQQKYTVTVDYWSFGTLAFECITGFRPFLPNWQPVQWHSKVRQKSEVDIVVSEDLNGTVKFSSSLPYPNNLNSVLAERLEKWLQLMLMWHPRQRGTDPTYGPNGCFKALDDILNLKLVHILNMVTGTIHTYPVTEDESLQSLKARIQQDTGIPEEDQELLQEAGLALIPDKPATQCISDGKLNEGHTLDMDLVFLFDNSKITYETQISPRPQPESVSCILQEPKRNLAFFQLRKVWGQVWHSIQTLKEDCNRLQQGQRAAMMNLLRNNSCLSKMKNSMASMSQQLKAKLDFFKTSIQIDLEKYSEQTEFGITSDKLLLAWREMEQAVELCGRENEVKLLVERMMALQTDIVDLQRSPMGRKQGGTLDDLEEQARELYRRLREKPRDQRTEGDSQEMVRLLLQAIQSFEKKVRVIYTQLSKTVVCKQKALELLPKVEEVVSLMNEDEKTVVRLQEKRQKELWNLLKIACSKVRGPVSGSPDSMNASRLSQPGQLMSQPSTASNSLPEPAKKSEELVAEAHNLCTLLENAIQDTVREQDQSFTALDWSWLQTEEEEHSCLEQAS

[3] = target: Citron Rho-interacting kinase (Homo sapiens) (UniProt O14578); details: Compound concentration 1000.0 nM
[4] = target: AP2-associated protein kinase 1 (Homo sapiens) (UniProt Q2M2I8); details: Compound concentration 1000.0 nM
[5] = system: Phosphatidylinositol 4,5-bisphosphate 3-kinase catalytic subunit alpha isoform (Homo sapiens), P42336 [Q546K]; details: Compound concentration 1000.0 nM
[6] = target: 5-hydroxytryptamine receptor 2A (Homo sapiens) (UniProt P28223); details: Compound concentration 10.0 uM
[7] = target: T2, Tyrosine-protein kinase JAK3 (Homo sapiens) (UniProt P52333); details: Compound concentration 1000.0 nM
T2 sequence (whole entry): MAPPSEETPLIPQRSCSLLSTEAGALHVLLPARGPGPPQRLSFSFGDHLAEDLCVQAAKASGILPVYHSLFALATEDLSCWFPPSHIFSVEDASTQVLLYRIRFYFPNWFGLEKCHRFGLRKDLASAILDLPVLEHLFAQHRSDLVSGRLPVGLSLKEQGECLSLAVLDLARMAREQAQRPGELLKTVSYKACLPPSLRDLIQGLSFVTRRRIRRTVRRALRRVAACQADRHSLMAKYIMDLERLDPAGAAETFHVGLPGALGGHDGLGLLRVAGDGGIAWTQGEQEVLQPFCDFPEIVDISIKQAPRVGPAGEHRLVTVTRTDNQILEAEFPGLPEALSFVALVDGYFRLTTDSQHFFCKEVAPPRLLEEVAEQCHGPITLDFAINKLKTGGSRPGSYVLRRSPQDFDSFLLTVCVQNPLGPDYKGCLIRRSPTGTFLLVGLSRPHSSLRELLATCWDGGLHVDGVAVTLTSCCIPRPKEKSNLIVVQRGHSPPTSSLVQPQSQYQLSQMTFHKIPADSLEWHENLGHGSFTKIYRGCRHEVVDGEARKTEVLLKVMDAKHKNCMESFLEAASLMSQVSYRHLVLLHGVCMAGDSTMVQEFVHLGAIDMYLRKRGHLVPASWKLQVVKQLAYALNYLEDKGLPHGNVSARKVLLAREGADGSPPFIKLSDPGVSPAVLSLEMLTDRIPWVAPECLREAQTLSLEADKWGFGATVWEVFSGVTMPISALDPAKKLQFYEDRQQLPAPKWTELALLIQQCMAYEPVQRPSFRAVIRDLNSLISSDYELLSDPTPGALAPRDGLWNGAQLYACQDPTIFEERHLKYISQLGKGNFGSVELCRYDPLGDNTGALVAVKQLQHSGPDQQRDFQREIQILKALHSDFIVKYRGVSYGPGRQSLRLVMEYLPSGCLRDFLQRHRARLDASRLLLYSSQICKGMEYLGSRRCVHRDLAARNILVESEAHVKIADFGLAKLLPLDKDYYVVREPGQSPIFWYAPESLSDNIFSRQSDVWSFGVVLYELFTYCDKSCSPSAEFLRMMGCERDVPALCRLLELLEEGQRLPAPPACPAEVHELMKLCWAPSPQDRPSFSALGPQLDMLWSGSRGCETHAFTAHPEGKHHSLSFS

[8] = target: T3, Serine/threonine-protein kinase BRSK1 (Homo sapiens) (UniProt Q8TDC3); details: Compound concentration 1000.0 nM
T3 sequence (whole entry): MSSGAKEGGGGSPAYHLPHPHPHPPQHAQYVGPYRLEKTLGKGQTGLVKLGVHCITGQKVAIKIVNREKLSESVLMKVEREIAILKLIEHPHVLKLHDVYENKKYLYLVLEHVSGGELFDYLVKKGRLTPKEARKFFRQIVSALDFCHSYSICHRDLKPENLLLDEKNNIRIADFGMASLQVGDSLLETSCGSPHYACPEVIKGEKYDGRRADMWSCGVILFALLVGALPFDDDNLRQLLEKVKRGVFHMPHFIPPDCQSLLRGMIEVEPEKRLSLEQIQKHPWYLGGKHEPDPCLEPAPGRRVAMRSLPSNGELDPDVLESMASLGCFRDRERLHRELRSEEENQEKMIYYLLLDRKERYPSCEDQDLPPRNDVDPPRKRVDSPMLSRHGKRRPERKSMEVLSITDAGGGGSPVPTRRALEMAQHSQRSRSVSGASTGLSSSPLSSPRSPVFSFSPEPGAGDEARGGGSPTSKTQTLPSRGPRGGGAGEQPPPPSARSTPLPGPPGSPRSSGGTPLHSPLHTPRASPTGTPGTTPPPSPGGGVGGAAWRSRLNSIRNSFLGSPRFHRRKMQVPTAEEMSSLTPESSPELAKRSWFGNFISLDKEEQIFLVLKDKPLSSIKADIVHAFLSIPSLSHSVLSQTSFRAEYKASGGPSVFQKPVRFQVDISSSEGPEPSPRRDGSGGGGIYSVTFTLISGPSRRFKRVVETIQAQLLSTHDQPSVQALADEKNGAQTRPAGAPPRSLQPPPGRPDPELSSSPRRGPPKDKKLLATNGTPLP

Phosphatidylinositol 4,5-bisphosphate 3-kinase catalytic subunit alpha isoform (Homo sapiens), P42336 [Q546K], sequence (P42336 whole entry Q546K, canonical isoform): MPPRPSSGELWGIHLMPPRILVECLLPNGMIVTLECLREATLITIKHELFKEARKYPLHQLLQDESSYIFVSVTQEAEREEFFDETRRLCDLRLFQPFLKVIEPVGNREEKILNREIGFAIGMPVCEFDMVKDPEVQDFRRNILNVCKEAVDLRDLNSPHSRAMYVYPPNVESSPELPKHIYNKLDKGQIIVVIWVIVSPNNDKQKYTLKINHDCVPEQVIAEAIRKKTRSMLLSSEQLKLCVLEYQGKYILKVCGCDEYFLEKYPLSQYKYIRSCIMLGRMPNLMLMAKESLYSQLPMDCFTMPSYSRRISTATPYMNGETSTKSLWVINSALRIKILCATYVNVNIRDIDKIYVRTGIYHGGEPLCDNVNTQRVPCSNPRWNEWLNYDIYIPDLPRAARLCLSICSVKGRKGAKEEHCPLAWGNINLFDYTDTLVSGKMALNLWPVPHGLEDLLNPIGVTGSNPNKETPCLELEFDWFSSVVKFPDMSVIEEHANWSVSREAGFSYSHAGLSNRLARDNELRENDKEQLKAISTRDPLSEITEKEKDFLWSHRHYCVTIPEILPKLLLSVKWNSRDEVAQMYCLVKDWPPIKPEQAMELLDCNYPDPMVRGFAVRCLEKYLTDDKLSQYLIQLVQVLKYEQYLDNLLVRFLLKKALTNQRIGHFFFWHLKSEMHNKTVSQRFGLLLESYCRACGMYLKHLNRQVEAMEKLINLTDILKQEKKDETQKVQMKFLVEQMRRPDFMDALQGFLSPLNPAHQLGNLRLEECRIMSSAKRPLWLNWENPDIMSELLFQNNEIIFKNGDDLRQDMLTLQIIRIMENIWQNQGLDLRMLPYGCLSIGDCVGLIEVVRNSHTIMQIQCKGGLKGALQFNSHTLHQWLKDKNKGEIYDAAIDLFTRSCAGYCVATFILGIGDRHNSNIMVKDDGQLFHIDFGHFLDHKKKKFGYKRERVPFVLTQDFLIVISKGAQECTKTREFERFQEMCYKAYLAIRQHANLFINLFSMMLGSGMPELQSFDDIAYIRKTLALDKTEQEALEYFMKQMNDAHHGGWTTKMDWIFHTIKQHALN
Citron Rho-interacting kinase (Homo sapiens), sequence (O14578 whole entry): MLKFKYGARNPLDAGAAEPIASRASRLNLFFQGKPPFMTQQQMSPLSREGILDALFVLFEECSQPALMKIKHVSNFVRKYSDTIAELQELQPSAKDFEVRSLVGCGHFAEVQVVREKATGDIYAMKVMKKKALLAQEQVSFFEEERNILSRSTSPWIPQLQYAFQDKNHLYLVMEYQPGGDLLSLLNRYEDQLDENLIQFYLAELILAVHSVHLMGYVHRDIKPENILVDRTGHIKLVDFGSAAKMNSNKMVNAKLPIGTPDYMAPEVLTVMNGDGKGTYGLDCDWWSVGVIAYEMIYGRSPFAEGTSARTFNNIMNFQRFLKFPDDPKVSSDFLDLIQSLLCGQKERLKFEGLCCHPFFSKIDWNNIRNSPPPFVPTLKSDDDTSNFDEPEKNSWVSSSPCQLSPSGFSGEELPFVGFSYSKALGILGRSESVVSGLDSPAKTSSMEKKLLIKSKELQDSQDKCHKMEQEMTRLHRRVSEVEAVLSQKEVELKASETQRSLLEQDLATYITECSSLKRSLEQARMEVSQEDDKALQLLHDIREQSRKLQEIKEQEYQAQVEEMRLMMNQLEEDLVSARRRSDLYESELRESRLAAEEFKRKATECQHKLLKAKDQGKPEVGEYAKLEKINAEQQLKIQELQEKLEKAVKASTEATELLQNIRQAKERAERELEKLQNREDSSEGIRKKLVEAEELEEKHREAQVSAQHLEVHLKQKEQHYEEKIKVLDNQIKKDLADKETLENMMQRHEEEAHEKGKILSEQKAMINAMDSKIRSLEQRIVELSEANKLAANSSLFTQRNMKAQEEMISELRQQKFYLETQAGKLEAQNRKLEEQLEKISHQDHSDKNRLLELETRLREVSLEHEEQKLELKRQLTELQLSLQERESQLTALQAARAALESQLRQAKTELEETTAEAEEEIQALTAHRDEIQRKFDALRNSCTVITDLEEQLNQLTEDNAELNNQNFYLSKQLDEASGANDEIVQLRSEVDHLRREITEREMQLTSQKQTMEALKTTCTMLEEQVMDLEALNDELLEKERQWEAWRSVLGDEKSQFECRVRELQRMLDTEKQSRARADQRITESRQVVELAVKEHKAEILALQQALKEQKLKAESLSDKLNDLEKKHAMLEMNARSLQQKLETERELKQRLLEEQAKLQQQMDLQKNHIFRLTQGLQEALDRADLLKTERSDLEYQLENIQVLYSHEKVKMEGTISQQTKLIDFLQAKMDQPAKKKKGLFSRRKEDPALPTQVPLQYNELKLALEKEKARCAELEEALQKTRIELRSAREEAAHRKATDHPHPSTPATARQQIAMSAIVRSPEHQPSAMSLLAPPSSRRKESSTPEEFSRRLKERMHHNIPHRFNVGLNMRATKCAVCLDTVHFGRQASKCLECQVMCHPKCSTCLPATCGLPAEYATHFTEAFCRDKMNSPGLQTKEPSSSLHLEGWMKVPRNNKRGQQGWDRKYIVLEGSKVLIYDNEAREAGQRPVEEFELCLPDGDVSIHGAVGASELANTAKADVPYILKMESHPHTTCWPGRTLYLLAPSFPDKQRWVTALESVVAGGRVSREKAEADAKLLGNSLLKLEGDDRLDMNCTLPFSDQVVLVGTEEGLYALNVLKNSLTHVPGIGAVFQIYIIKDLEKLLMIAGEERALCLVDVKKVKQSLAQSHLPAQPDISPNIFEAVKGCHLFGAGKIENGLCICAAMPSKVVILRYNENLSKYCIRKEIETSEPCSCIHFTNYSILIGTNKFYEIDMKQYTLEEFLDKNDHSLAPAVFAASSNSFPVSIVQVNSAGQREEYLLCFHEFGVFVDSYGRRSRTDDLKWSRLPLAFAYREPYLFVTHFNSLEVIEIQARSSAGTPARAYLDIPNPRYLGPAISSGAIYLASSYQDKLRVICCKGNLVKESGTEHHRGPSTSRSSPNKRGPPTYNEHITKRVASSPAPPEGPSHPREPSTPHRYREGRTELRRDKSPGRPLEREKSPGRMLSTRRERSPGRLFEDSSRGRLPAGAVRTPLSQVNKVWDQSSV
Mitogen-activated protein kinase kinase kinase 9 (Homo sapiens), sequence (P80192 whole entry, looked up): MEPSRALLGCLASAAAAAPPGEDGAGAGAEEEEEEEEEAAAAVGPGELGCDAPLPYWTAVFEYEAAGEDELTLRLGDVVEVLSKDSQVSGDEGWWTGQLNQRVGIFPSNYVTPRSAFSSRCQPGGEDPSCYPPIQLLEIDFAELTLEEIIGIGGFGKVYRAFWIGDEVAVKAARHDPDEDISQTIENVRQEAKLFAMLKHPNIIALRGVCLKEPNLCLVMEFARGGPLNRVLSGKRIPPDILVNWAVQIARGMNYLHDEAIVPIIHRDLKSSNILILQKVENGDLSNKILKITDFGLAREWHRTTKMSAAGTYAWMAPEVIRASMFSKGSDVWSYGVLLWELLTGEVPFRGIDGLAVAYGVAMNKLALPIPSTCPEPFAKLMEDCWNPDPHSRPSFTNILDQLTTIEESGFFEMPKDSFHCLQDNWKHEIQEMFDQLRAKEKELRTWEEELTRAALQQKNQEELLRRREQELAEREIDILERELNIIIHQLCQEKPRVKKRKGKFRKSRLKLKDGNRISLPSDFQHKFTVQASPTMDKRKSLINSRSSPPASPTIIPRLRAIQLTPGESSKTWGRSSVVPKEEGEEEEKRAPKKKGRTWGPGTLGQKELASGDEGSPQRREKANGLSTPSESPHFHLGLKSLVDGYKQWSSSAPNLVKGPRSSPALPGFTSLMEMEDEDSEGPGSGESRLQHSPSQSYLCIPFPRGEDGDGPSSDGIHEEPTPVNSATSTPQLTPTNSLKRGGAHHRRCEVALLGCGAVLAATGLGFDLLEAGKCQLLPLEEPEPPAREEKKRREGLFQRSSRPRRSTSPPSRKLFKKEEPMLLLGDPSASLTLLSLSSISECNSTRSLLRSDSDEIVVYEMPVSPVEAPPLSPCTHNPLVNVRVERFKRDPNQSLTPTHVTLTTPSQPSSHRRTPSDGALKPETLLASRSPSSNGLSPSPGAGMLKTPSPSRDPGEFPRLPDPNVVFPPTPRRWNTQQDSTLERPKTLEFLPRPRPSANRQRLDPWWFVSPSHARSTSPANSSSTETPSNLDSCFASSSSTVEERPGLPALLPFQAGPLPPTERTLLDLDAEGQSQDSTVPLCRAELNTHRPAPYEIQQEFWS
5-hydroxytryptamine receptor 2A (Homo sapiens), sequence (P28223 whole entry): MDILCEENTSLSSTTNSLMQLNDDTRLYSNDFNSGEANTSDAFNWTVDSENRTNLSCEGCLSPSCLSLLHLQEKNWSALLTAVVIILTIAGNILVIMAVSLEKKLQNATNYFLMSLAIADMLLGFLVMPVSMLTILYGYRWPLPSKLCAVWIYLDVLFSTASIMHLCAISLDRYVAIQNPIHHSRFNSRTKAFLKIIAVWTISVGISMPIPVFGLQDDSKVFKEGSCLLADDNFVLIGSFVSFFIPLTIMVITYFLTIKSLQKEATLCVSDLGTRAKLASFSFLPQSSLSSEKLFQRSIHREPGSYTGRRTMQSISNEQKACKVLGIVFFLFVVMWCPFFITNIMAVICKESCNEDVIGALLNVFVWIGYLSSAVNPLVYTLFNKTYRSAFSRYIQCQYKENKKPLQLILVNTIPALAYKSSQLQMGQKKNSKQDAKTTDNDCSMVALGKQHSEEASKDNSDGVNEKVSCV

Cc1nc(C2CCN(C(=O)c3ccc(OC(F)(F)F)cc3N)CC2)c2ncc(N3CCN(C)CC3)cc2n1 [BAY-693]
inactive: residual activity [1] 97% | residual activity [2] 78% | residual activity [3] 100% | residual activity [4] 100% | residual activity [5] 88% | inhibition [6] 4.68% | residual activity [7] 100% | residual activity [8] 100%

CN1CCN(c2cnc3c(C4CCN(C(=O)c5ccc(OC(F)(F)F)cc5N)CC4)ncnc3c2)CC1 [BAY-885]
inactive: residual activity [1] 100% | residual activity [2] 100% | residual activity [3] 100% | residual activity [4] 100% | residual activity [5] 100% | inhibition [6] 4.33% | residual activity [7] 100% | residual activity [8] 100%

Reference: ChEMBL document CHEMBL4507268 (2021)
